Test results from PubChem BioAssay AID2060610 (Molecular Pharmacology Branch, DTP, NCI, 2025).

System: 616215-338-R-J1-PDC complex spheroids, viability % test/control
Experiment: Anticancer human tumor 616215-338-R-J1-PDC patient-derived colon adenocarcinoma cell line growth inhibition [CLK]
Settings: for IC50: curve of first compound; for viability, T/C: stronger effect = lower value
Excerpt: A high-throughput screen of multi-cell type tumor spheroids was designed to identify active combinations of […] and targeted small molecules. Complex spheroids include a stromal component modeled by human endothelial cells (HUVEC) and fibroblasts modeled by human mesenchymal stem cells (MSCs). The concentration ranges selected for each drug and investigational agent were based upon clinically achievable concentrations if the clinical Cmax of the agent was known.
Compounds. The drugs and investigational agents: cirtuvivint (SM08502; NSC835563), CC-671 (NSC850746), vemurafenib (NSC761431), tapotoclax (NSC804041), sotorasib (NSC818433), adagrasib (NSC831453), MRTX-1133 (NSC836407), BAY2416964 (NSC825713), copanlisib (NSC816437), inavolisib (NSC800729), abemaciclib (NSC768073), osimertinib (NSC779217), entinostat (NSC756642), eltanexor (KPT-8602, NSC794443), venetoclax (NSC766270), ceralasertib (NSC777638), bortezomib (NSC756655), olaparib (NSC753686), talazoparib (NSC767125), alisertib (NSC759677), peposertib (NSC802822), gemcitabine (NSC613327), 5-fluorouracil (NSC19893), SN-38 (NSC673596), oxaliplatin (NSC266046), paclitaxel (NSC125973), and doxorubicin (NSC123127), were obtained from the National Cancer Institute (NCI) Developmental Therapeutics Program Chemical Repository. The FDA-approved anticancer drug set is available from the Developmental Therapeutics Program at https://dtp.cancer.gov/organization/dscb/obtaining/available plates.htm. […] The stock solutions were prepared in dimethyl sulfoxide (DMSO, Sigma-Aldrich, St. Louis, MO, cat. D2650), except for the platinum complexes which were prepared in saline (Quality Biological, Gaithersburg, MD, cat. 114-055-101), at 800-fold the tested concentration and stored at -70 degrees C prior to their use. All drugs and investigational agents were tested over a range starting from a high concentration at or near the clinical Cmax and decreasing in half-log increments. If the clinical Cmax for an agent had not been determined, the highest concentration tested was 10 microM.
Cell Culture. All cells were maintained in an incubator at 37 degrees C and 5% CO2 with 95% humidity. The PDC lines were cultured according to standard operating procedures established by the NCI PDMR. Briefly, all PDCs were thawed and cultured in Matrigel-coated flasks prepared with a working solution of 1X Ham's F-12 nutrient mix, without supplementation (Invitrogen, Waltham, MA, cat. 11765054), 100 U/mL penicillin-streptomycin (Invitrogen, cat. 15140122), and 2.5% Matrigel (Corning Inc., Corning, NY, cat. 354248) for the first three passages. The 947758-054-R-J2-PDC line was cultured in 6B/Colon 1A media, which includes advanced DMEM/F-12 (Thermo Fisher Scientific, cat. 12634028), 10 mM HEPES (Thermo Fisher Scientific, cat. 15630080), 1X GlutaMAX supplement (Thermo Fisher Scientific, cat. 35050061), 0.1 mg/mL primocin (InvivoGen, cat. ant-pm-2), 10% defined fetal bovine serum, heat inactivated (HyClone Laboratories Inc., cat. SH30070.03HI), 1.25 mM N-Acetyl-L-cysteine (Sigma-Aldrich, cat. A9165), 10 mM nicotinamide (Sigma-Aldrich, cat. N0636), 1X B-27 supplement (Thermo Fisher Scientific, cat. 17504044), 1X N-2 supplement (Thermo Fisher Scientific, cat. 17502048), and 10 microM Y-27632 dihydrochloride (Tocris Bioscience, cat. 1254). The 876862-298-R-J1-PDC was cultured in 6E media, which includes all 6B/Colon 1A media components plus 50% L-WRN conditioned media (ATCC, cat. CRL-3276), 50 ng/mL recombinant human EGF recombinant protein (hEGF; Thermo Fisher Scientific, cat. PHG0311), 10 ng/mL recombinant human fibroblast growth factor 10 (hGFG-10; PeproTech, cat. 100-26), 1 ng/mL recombinant human fibroblast growth factor 2 (hFGF-2; PeproTech, cat. 100-18B), and 1 µM prostaglandin E2 (PGE2; Tocris, cat. 2296). The 227483-062-R1-J1-PDC line was cultured in Panc media, containing all 6E components except hFGF-2, with the addition of 500 nM SB-431542 (Selleckchem, cat. S1067) and 10 nM gastrin (Tocris, cat. 3006). […]
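Further: spheroids exposed to agents for 7 days.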
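Wherever viability, T/C is given: 100% = DMSO vehicle wells.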

IC50 (second compound 0.0316 µM): 5.4 nM | IC50 (second compound 0.1 µM): 4.28 nM | IC50 (second compound 0.316 µM): < 0.949 nM | IC50 (second compound 1 µM): < 0.949 nM | IC50 (second compound 3.16 µM): < 0.949 nM | IC50 (second compound 10 µM): < 0.949 nM
Structure (SMILES): CC(C)CC(NC(=O)C(Cc1ccccc1)NC(=O)c1cnccn1)B(O)O (configuration not stated) + CNC(=O)c1ccc(Nc2nc(OC3CCCC3)c3c(-c4ccc5nc(C)oc5c4)c[nH]c3n2)c(OC)c1
viability, T/C (second compound 0.0316 µM, first compound 0.000949 µM): 93.4% | viability, T/C (second compound 0.0316 µM, first compound 0.003 µM): 110% | viability, T/C (second compound 0.0316 µM, first compound 0.00949 µM): 0.37% | viability, T/C (second compound 0.0316 µM, first compound 0.03 µM): 0.24% | viability, T/C (second compound 0.0316 µM, first compound 0.0949 µM): 0.24% | viability, T/C (second compound 0.0316 µM, first compound 0.3 µM): 1.23% | viability, T/C (second compound 0.1 µM, first compound 0.000949 µM): 55.6% | viability, T/C (second compound 0.1 µM, first compound 0.003 µM): 88.9% | viability, T/C (second compound 0.1 µM, first compound 0.00949 µM): 0.21% | viability, T/C (second compound 0.1 µM, first compound 0.03 µM): 0.22% | viability, T/C (second compound 0.1 µM, first compound 0.0949 µM): 0.18% | viability, T/C (second compound 0.1 µM, first compound 0.3 µM): 0.5% | viability, T/C (second compound 0.316 µM, first compound 0.000949 µM): 45.9% | viability, T/C (second compound 0.316 µM, first compound 0.003 µM): 38.4% | viability, T/C (second compound 0.316 µM, first compound 0.00949 µM): 0.2% | viability, T/C (second compound 0.316 µM, first compound 0.03 µM): 0.18% | viability, T/C (second compound 0.316 µM, first compound 0.0949 µM): 0.15% | viability, T/C (second compound 0.316 µM, first compound 0.3 µM): 0.86% | viability, T/C (second compound 1 µM, first compound 0.000949 µM): 45.3% | viability, T/C (second compound 1 µM, first compound 0.003 µM): 29.9% | viability, T/C (second compound 1 µM, first compound 0.00949 µM): 0.19% | viability, T/C (second compound 1 µM, first compound 0.03 µM): 0.15% | viability, T/C (second compound 1 µM, first compound 0.0949 µM): 1.71% | viability, T/C (second compound 1 µM, first compound 0.3 µM): 1.14% | viability, T/C (second compound 3.16 µM, first compound 0.000949 µM): 45.7% | viability, T/C (second compound 3.16 µM, first compound 0.003 µM): 18.6% | viability, T/C (second compound 3.16 µM, first compound 0.00949 µM): 0.16% | viability, T/C (second compound 3.16 µM, first compound 0.03 µM): 0.16% | viability, T/C (second compound 3.16 µM, first compound 0.0949 µM): 0.18% | viability, T/C (second compound 3.16 µM, first compound 0.3 µM): 1.5% | viability, T/C (second compound 10 µM, first compound 0.000949 µM): 45.9% | viability, T/C (second compound 10 µM, first compound 0.003 µM): 19.5% | viability, T/C (second compound 10 µM, first compound 0.00949 µM): 0.22% | viability, T/C (second compound 10 µM, first compound 0.03 µM): 0.18% | viability, T/C (second compound 10 µM, first compound 0.0949 µM): 1.53% | viability, T/C (second compound 10 µM, first compound 0.3 µM): 2.83%
